We go through three molecules from US20240285571A1, “METHODS OF TREATING BONE INFECTIONS” (MICROBION CORPORATION, priority 2020, published 2024).

Common to all, as to type: cell-based
Experiment [1] has as its system relevant ATCC QC organisms. The experiment in a line: Broth microdilution MIC, QC (Example 6). The procedure: (§1) Test Compounds: The test agents BisEDT (MB-1-B3; Lot No. ED268-1-11-01), MB-2B, and MB-6 were stored at room temperature, in the dark, until assayed. The solvent and diluent for the test agents was DMSO (Sigma; St. Louis, MO; Lot No. SHBB9319V) and the prepared stock concentration was 6,464 μg/mL (101× the final test concentration).
(§2) Test compounds were evaluated at a concentration range of 0.06-64 μg/mL. For Gram-negative test isolates, amikacin and ceftazidime (alone and with clavulanate at a fixed concentration of 4 μg/mL) were evaluated over a concentration range of 0.06-64 μg/mL; meropenem and levofloxacin were evaluated over a concentration range of 0.008-8 μg/mL. For the testing of S. aureus, clindamycin, daptomycin, levofloxacin and vancomycin were evaluated at a concentration range of 0.008-8 μg/mL; linezolid was tested from 0.03-32 μg/mL.
Organisms: The test organisms as shown in Tables 11-15 consisted of clinical isolates from the Micromyx (MMX) repository and reference strains from the American Type Culture Collection (ATCC; Manassas, VA), National Collection of Type Cultures (NCTC; Public Health England, Salisbury, UK), the Network on Antimicrobial Resistance in Staphylococcus aureus (NARSA; BEI Resources, Manassas, VA), and the Centers for Disease Control and Prevention (CDC; Atlanta, GA). The test organisms were maintained frozen at −80° C. Prior to testing, the isolates were cultured on Tryptic Soy Agar with 5% sheep blood (BAP; Becton Dickson [BD]/BBL; Sparks, MD; Lot Nos. 9080650 and 9108563) at 35° C. Relevant ATCC quality control (QC) organisms (Table 16) were included during testing in accordance with CLSI guidelines (3). Further details on the genetic characterization of the isolates where available can be found in Table 17.
(§3) Media: Cation-adjusted Mueller Hinton broth (CAMHB; BD; Lot No. 8190586) was used as the medium for testing (2, 3). For testing daptomycin, calcium was supplemented with […] Ca^2+, resulting in a final concentration of […] Ca^2+ (2, 3).
(§4) MIC Assay Procedure: MIC values were determined using a broth microdilution procedure described by CLSI (2, 3). Automated liquid handlers (Multidrop 384, Labsystems, Helsinki, Finland; Biomek 2000 and Biomek F X, Beckman Coulter, Fullerton CA) were used to conduct serial dilutions and liquid transfers.
(§5) To prepare the drug mother plates, which would provide the serial drug dilutions for the replicate daughter plates, the wells of columns 2 through 12 of standard 96-well microdilution plates (Costar 3795) were filled with 150 μl of the appropriate diluent for each row of drug. The test articles and comparator compounds (300 μl at 101× the highest concentration to be tested) were dispensed into the appropriate wells in column 1. The Biomek 2000 was then used to make 2-fold serial dilutions in the mother plates from column 1 through column 11. The wells of column 12 contained no drug and served as the organism growth control wells for the assay.
(§6) The daughter plates were loaded with 190 μL per well of RPMI using the Multidrop 384. The test panels were prepared on the Biomek FX instrument which transferred 2 μL of drug solution from each well of a mother plate to the corresponding well of each daughter plate in a single step.
(§7) A standardized inoculum of each test organism was prepared per CLSI methods to equal a 0.5 McFarland standard, followed by a dilution of 1:20. The plates were then inoculated with 10 μL of the diluted inoculum using the Biomek 2000 from low to high drug concentration resulting in a final concentration of approximately 5×10^5 CFU/mL.
(§8) Plates were stacked 3-4 high, covered with a lid on the top plate, placed into plastic bags, and incubated at 35° C. for 16 to 20 hr (vancomycin was read for S. aureus after 24 hr incubation time). The MIC was recorded as the lowest concentration of drug that inhibited visible growth of the organism.

The subject of a further experiment is Escherichia coli. The experiment in a line: Broth microdilution MIC (Example 6). The procedure: (§9) Test Compounds: The test agents BisEDT (MB-1-B3; Lot No. ED268-1-11-01), MB-2B, and MB-6 were stored at room temperature, in the dark, until assayed.
(§10) For testing daptomycin, calcium was supplemented with […] Ca^2+, resulting in a final concentration of […] Ca^2+ (2, 3).
(§11) MIC Assay Procedure: MIC values were determined using a broth microdilution procedure described by CLSI (2, 3).
(§12) The Biomek 2000 was then used to make 2-fold serial dilutions in the mother plates from column 1 through column 11. The wells of column 12 contained no drug and served as the organism growth control wells for the assay.
(§13) The test panels were prepared on the Biomek FX instrument which transferred 2 μL of drug solution from each well of a mother plate to the corresponding well of each daughter plate in a single step.
as §7, §8
On the technique in general: Dilution methods test growth across graded concentrations, often in twofold steps.

The subject of a further experiment is Klebsiella pneumoniae. Description: Broth microdilution MIC (Example 6). The procedure: as §9, §10, §11, §12, §13, §7, §8
For another experiment, the system named is Pseudomonas aeruginosa. The experiment in a line: Broth microdilution MIC (Example 6). The procedure: as §9, §10, §11, §12, §13, §7, §8
Another experiment concerns Acinetobacter baumannii. Description: Broth microdilution MIC (Example 6). The procedure:
as §1, §2, §3, §4, §5, §6, §7, §8

A further experiment deals with S. pneumoniae. The experiment in a line: Broth microdilution MIC (Example 5). The procedure: Test and Comparator Agents: The test agents were stored at room temperature until assayed. […] The stock solutions were allowed to stand for at least 1 hr prior to use to auto-sterilize.
TestMedia: Test media were prepared and stored in accordance with guidelines from CLSI (4, 6, 7).
Broth Microdilution MC Testing (Aerobic Bacteria and Yeast): The broth microdilution assay method employed for the susceptibility testing of aerobic bacteria (excluding N. gonorrhoeae which was evaluated by agar dilution) and yeast essentially followed the procedures described by CLSI (3, 4, 7, 8) and employed automated liquid handlers to conduct serial dilutions and liquid transfers. […] These would become the ‘mother plates’ from which ‘daughter’ or test plates would be prepared. The drugs (300 μL at 40× the desired top concentration in the test plates) were dispensed into the appropriate well in Column 1 of the mother plates. The Biomek 2000 was used to make serial two-fold dilutions through Column 11 in the “mother plate”. The wells of Column 12 contained no drug and ultimately served as the organism growth control wells.
The daughter plates were prepared using the Biomek FX which transferred 5 μL of drug solution from each well of a mother plate to the corresponding well of the correct daughter plate in a single step.
A standardized inoculum of each organism was prepared per CLSI methods (3, 7). Isolated colonies of each test isolate were picked from the primary plate and a suspension was prepared to equal a 0.5 McFarland turbidity standard. Standardized suspensions were then diluted […] (1:100 for yeast, 1:20 for bacteria). After dilution, the inoculum suspensions were then transferred to compartments of sterile reservoirs divided by length (Beckman Coulter), and the Biomek 2000 was used to inoculate all plates. Daughter plates were placed on the Biomek 2000 in reverse orientation so that plates were inoculated from low to high drug concentration.
The Biomek 2000 delivered 10 μL of standardized inoculum into each well of the appropriate daughter plate for an additional 1:20 dilution.
Plates were stacked 4 high, covered with a lid on the top plate, placed into plastic bags, and incubated at 35° C. for approximately 24-48 hr for all yeast isolates and 16-24 hr for aerobic bacteria. Plates were viewed from the bottom using a plate viewer. […] MIC endpoints for the test agents and control compounds were read per CLSI criteria (3, 7).

One may read the MIC as the smallest concentration in the dilution series that meets the test's criterion for growth inhibition. For `CC(C)(O/N=C(\C(=O)N[C@@H]1C(=O)N2C(C(=O)[O-])=C(C[n+]3ccccc3)CS[C@H]12)c1csc(N)n1)C(=O)O.O=C(O)[C@H]1/C(=C/CO)O[C@@H]2CC(=O)N21` [CAZ + CLAV], the results for the MIC in experiment [1] (K. pneumoniae ATCC BAA-1705) and in experiment [1] (P. aeruginosa ATCC 27853) were >64/4 and 2/4, respectively.

Consider `CC(C)(O/N=C(\C(=O)N[C@@H]1C(=O)N2C(C(=O)[O-])=C(C[n+]3ccccc3)CS[C@H]12)c1csc(N)n1)C(=O)O.O=C(O)[C@H]1/C(=C/CO)O[C@@H]2CC(=O)N21` [CAZ/CLAV], for which the MIC is >64/4 in the experiment with Escherichia coli (E. coli ATCC BAA-2471, NDM); 64/4 against Escherichia coli (E. coli CDC 114, ESBL/KPC); >64/4 in the experiment with Escherichia coli (E. coli CDC 118, ESBL/NDM); >64/4 with Escherichia coli (E. coli CDC 435, NDM); 16/4 in the experiment with Escherichia coli (E. coli CDC 451, KPC); >64/4 against Escherichia coli (E. coli CDC 503, ESBL/NDM). Also, the minimum inhibitory concentration (MIC) in the experiment on Escherichia coli (E. coli MMX 5745, KPC) is on record as 16/4; against Escherichia coli (E. coli MMX 5755, ESBL) it was 1/4; against Klebsiella pneumoniae (K. pneumoniae ATCC BAA-1705, ESBL/KPC), >64/4; against Klebsiella pneumoniae (K. pneumoniae CDC 112, KPC), >64/4; in the experiment on Klebsiella pneumoniae (K. pneumoniae CDC 113, ESBL/KPC), >64/4; against Klebsiella pneumoniae (K. pneumoniae CDC 115, ESBL/KPC), >64/4. Moreover, the minimum inhibitory concentration (MIC) in the experiment with Klebsiella pneumoniae (K. pneumoniae CDC 120, ESBL/KPC) was 64/4; against Klebsiella pneumoniae (K. pneumoniae CDC 126, ESBL/KPC), 8 µg/mL; in the experiment on Klebsiella pneumoniae (K. pneumoniae CDC 129, ESBL/KPC), >64/4; with Klebsiella pneumoniae (K. pneumoniae CDC 135, ESBL/VIM) it was >64/4; against Klebsiella pneumoniae (K. pneumoniae CDC 138, ESBL/NDM) it was >64/4; against Klebsiella pneumoniae (K. pneumoniae CDC 158, ESBL/NDM/OXA) it was >64/4. The MIC is reported as 32/4 against Pseudomonas aeruginosa (P. aeruginosa isolate CDC 230, β-lactamase type VIM/OXA); >64/4 against Pseudomonas aeruginosa (P. aeruginosa isolate CDC 231, β-lactamase type KPC/OXA); >64/4 in the experiment on Pseudomonas aeruginosa (P. aeruginosa isolate CDC 241, β-lactamase type IMP/OXA); >64/4 against Pseudomonas aeruginosa (P. aeruginosa isolate CDC 246, β-lactamase type NDM/OXA); >64/4 against Pseudomonas aeruginosa (P. aeruginosa isolate CDC 250, β-lactamase type NDM/OXA); 64/4 in the experiment on Pseudomonas aeruginosa (P. aeruginosa isolate CDC 356, β-lactamase type KPC). For the same molecule, the MIC in the experiment with Pseudomonas aeruginosa (P. aeruginosa isolate CDC 439, β-lactamase type IMP) is given as >64/4; in the experiment with Pseudomonas aeruginosa (P. aeruginosa isolate CDC 444, β-lactamase type VIM), 32/4; with Pseudomonas aeruginosa (P. aeruginosa isolate CDC 457, β-lactamase type VIM) it was 64/4; in the experiment with Pseudomonas aeruginosa (P. aeruginosa isolate CDC 516, β-lactamase type KPC/AmpC), 64/4; against Pseudomonas aeruginosa (P. aeruginosa isolate CDC 518, β-lactamase type KPC/AmpC), 32/4; with Acinetobacter baumannii (A. baumannii isolate CDC 273, β-lactamase type ESBL/OXA), 64/4. The MIC is >64/4 in the experiment with Acinetobacter baumannii (A. baumannii isolate CDC 274, β-lactamase type ESBL/OXA); >64/4 in the experiment with Acinetobacter baumannii (A. baumannii isolate CDC 275, β-lactamase type ESBL/OXA); >64/4 with Acinetobacter baumannii (A. baumannii isolate CDC 277, β-lactamase type ESBL/OXA); 16/4 with Acinetobacter baumannii (A. baumannii isolate CDC 284, β-lactamase type ESBL/OXA); 64/4 in the experiment on Acinetobacter baumannii (A. baumannii isolate CDC 307, β-lactamase type OXA); 64/4 in the experiment on Acinetobacter baumannii (A. baumannii isolate CDC 308, β-lactamase type ESBL/OXA). Further, the minimal inhibitory concentration (MIC) with Acinetobacter baumannii (A. baumannii isolate CDC 311, β-lactamase type OXA) is given as >64/4; in the experiment on Acinetobacter baumannii (A. baumannii isolate CDC 312, β-lactamase type OXA) it was >64/4; in the experiment on Acinetobacter baumannii (A. baumannii isolate CDC 313, β-lactamase type ESBL/OXA), >64/4; with Acinetobacter baumannii (A. baumannii isolate NCTC 13304, β-lactamase type OXA) it was >64/4.

For `COc1cc(Cc2cnc(N)nc2N)cc(OC)c1OC.Cc1cc(NS(=O)(=O)c2ccc(N)cc2)no1` [Trimeth/Sulfa], the minimum inhibitory concentration (MIC) is listed as 4/76 in the experiment on S. pneumoniae (S. pneumoniae MMX 880, LevR SXTR CCR EryR PenR); 16/304 with S. pneumoniae (S. pneumoniae MMX 937, MemR SXTR CCR EryR PenR); 2/38 in the experiment on S. pneumoniae (S. pneumoniae MMX 3959, CCR EryR); 16/304 in the experiment with S. pneumoniae (S. pneumoniae MMX 5440, MemR SXTR CCR EryR PenR); 8/152 against S. pneumoniae (S. pneumoniae MMX 5445, MemR SXTR CCR EryR PenR); 8/152 with S. pneumoniae (S. pneumoniae MMX 8133, MemR SXTR CCR EryR PenR).
